Assay results taken from patent US20220233684A1, “COMBINATION OF HEPATITIS B VIRUS (HBV) VACCINES AND PD-L1 INHIBITORS” (Janssen Sciences Ireland Unlimited Company, priority 2019, published 2022).

Target: PD-1/PD-L1 (Homo sapiens, UniProt Q9NZQ7)
Assay: PD-1/PD-L1 biochemical protein-protein interaction assay (ALPHA)
Assay type: binding
Details: 5 nM His tagged PD-L1, 5 nM biotinylated PD-1, 2 hours at 25° C.; read-out: ALPHA-LISA IC50
Procedure: Compounds were tested in protein-protein interaction assay to determine if they can specifically block the interaction between the extracellular domains of PD-1/PD-L1. Binding of the protein pairs is measured using a bead based amplified luminescent proximity homogeneous assay (ALPHA) platform. Binding of each protein pair results in proximity of the donor and acceptor beads which leads to an increase in ALPHA signal. Assays are performed in 50 mM Tris (pH 7.4), 0.0015% Triton X-100, 0.1% BSA. Final protein concentration in the assays were 5 nM (His tagged PD-L1), 5 nM (biotinylated PD-1), 10 μg/ml ALPHA assay acceptor beads, 10 μg/ml ALPHA assay donor beads. After an assay reaction time of 2 hours at 25° C., binding was measured. The specificity of the binding was determined by testing the compounds in an assay with an irrelevant protein that is both His tagged and biotinylated. The final protein concentration used in the assay was 5 nM, 10 μg/ml ALPHA assay acceptor beads, 10 μg/ml ALPHA assay donor beads. After an assay reaction time of 2 hours at 25° C., binding was measured. IC50 values were calculated from the fit of the dose-response curves to a four-parameter equation.
The specificity of the binding was determined by testing the compounds in an assay with an irrelevant protein that is both His tagged and biotinylated (ErbB3/her3). The final protein concentration used in the assay was 5 nM, 10 μg/mL ALPHA assay acceptor beads, 10 μg/mL ALPHA assay donor beads. After an assay reaction time of 2 hours at 25° C., binding was measured. IC50 values were calculated from the fit of the dose-response curves to a four-parameter equation.

Sequence of PD-1/PD-L1 (Q9NZQ7 19-238 limits assumed): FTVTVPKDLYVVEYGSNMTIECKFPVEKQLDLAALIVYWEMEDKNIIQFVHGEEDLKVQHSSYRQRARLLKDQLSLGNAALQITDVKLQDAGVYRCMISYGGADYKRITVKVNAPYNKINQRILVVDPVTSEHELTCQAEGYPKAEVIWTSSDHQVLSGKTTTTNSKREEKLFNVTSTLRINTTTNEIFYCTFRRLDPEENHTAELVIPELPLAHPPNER

| IC50 | SMILES |
| --- | --- |
| 1100 nM | Cc1cc(CN[C@H](CO)C(=O)O)c(OCc2cccc(C#N)c2)cc1OCc1cccn(-c2ccc3c(c2)OCCO3)c1=O [Compound 7, (2-((3-cyanobenzyl)oxy)-4-((1-(2,3-dihydrobenzo[b][1,4]dioxin-6-yl)-2-oxo-1,2-dihydropyridin-3-yl)methoxy)-5-methylbenzyl)-D-serine] |
| 3400 nM | Cc1cc(CN2C[C@H](O)C[C@@H]2C(=O)O)c(OCc2cccc(C#N)c2)cc1OCc1cccn(-c2ccc3c(c2)OCCO3)c1=O [Compound 8, (2R,4R)-1-(2-((3-cyanobenzyl)oxy)-4-((1-(2,3-dihydrobenzo[b][1,4]dioxin-6-yl)-2-oxo-1,2-dihydropyridin-3-yl)methoxy)-5-methylbenzyl)-4-hydroxypyrrolidine-2-carboxylic acid] |
| 1200 nM | Cc1cc(CN[C@](C)(CO)C(=O)O)c(OCc2cccc(C#N)c2)cc1OCc1cccn(-c2ccc3c(c2)OCCO3)c1=O [Compound 9, (R)-2-((2-((3-cyanobenzyl)oxy)-4-((1-(2,3-dihydrobenzo[b][1,4]dioxin-6-yl)-2-oxo-1,2-dihydropyridin-3-yl)methoxy)-5-methylbenzyl)amino)-3-hydroxy-2-methylpropanoic acid] |
| 1200 nM | Cc1cc(CN[C@@H](CO)C(=O)O)c(OCc2cccc(C#N)c2)cc1OCc1cccn(-c2ccc3c(c2)OCCO3)c1=O [Compound 10, (2-((3-cyanobenzyl)oxy)-4-((1-(2,3-dihydrobenzo[b][1,4]dioxin-6-yl)-2-oxo-1,2-dihydropyridin-3-yl)methoxy)-5-methylbenzyl)-L-serine] |
| 3900 nM | Cc1cc(CN[C@@H](C)C(=O)O)c(OCc2cccc(C#N)c2)cc1OCc1cccn(-c2ccc3c(c2)OCCO3)c1=O [Compound 11] |
| 1600 nM | Cc1cc(CN(C)[C@@H](CO)C(=O)O)c(OCc2cccc(C#N)c2)cc1OCc1cccn(-c2ccc3c(c2)OCCO3)c1=O [Compound 12] |
| 3000 nM | Cc1cc(CN[C@H](CO)C(=O)O)c(OCc2cccc(Cl)c2)cc1OCc1cccn(-c2ccc3c(c2)OCCO3)c1=O [Compound 101, (2-((3-chlorobenzyl)oxy)-4-((1-(2,3-dihydrobenzo[b][1,4]dioxin-6-yl)-2-oxo-1,2-dihydropyridin-3-yl)methoxy)-5-methylbenzyl)-D-serine] |
| 1000 nM | Cc1cc(CN[C@H](CO)C(=O)O)c(OCc2cccnc2)cc1OCc1cccn(-c2ccc3c(c2)OCCO3)c1=O [Compound 103, (4-((1-(2,3-dihydrobenzo[b][1,4]dioxin-6-yl)-2-oxo-1,2-dihydropyridin-3-yl)methoxy)-5-methyl-2-(pyridin-3-ylmethoxy)benzyl)-D-serine] |
| 300 nM | N#Cc1cccc(COc2cc(OCc3cccn(-c4ccc5c(c4)OCCO5)c3=O)c(Cl)cc2CN[C@H](CO)C(=O)O)c1 [Compound 202, (5-chloro-2-((3-cyanobenzyl)oxy)-4-((1-(2,3-dihydrobenzo[b][1,4]dioxin-6-yl)-2-oxo-1,2-dihydropyridin-3-yl)methoxy)benzyl)-D-serine] |
| 2700 nM | CCc1cc(CN[C@H](CO)C(=O)O)c(OCc2cccc(C#N)c2)cc1OCc1cccn(-c2ccc3c(c2)OCCO3)c1=O [Compound 203] |
| 3600 nM | CC(C)c1cc(CN[C@H](CO)C(=O)O)c(OCc2cccc(C#N)c2)cc1OCc1cccn(-c2ccc3c(c2)OCCO3)c1=O [Compound 204] |
| 360 nM | N#Cc1cccc(COc2cc(OCc3cccn(-c4ccc5c(c4)OCCO5)c3=O)c(Cl)cc2CNC[C@@H]2CCC(=O)N2)c1 [Compound 205, (S)-3-((4-chloro-5-((1-(2,3-dihydrobenzo[b][1,4]dioxin-6-yl)-2-oxo-1,2-dihydropyridin-3-yl)methoxy)-2-((((5-oxopyrrolidin-2-yl)methyl)amino)methyl)phenoxy)methyl)benzonitrile] |
| 320 nM | N#Cc1cncc(COc2cc(OCc3cccn(-c4ccc5c(c4)OCCO5)c3=O)c(Cl)cc2CN[C@H](CO)C(=O)O)c1 [Compound 207, (5-chloro-2-((5-cyanopyridin-3-yl)methoxy)-4-((1-(2,3-dihydrobenzo[b][1,4]dioxin-6-yl)-2-oxo-1,2-dihydropyridin-3-yl)methoxy)benzyl)-D-serine] |
| 550 nM | O=C(O)[C@@H](CO)NCc1cc(Cl)c(OCc2cccn(-c3ccc4c(c3)OCCO4)c2=O)cc1OCc1cncc(-n2ccnn2)c1 [Compound 209] |
